# According to paper PMC8268887, “Peptide/β-Peptoid Hybrids with Ultrashort PEG-Like Moieties: Effects on Hydrophobicity, Antibacterial Activity and Hemolytic Properties” (International Journal of Molecular Sciences, 2021):
# Like-named read-outs stand apart in the source and are kept apart here.
# Experiments:
# S. aureus ATCC 29213 = type: cell-based, Staphylococcus aureus; details: ATCC 29213, 20 h
# Protocol: (§1) MIC values of the peptidomimetics were evaluated by using the modified Hancock lab protocol in non-binding polystyrene microtiter plates. Bacterial suspensions of ~5 × 10^5 CFU/mL in Mueller-Hinton broth (Difco, Sparks, MD, USA) were prepared with Mg^2+ and Ca^2+ concentrations of 4 mg/L each. The compounds were dissolved in H2O and diluted in 0.01% acetic acid, 0.2% BSA (final concentration). Aliquots (11 µL) of test compounds were then transferred to wells containing bacterial suspensions (100 µL). Low-binding sterile tubes and tips (Axygen, Union City, CA, USA) were used for preparation and transfer of the solutions of the compounds. Following incubation for 20 h of the covered plates at 35 °C (±2 °C) with circular shaking at 180 rpm, the MICs were read.
# K. pneumoniae ATCC 13883 = type: cell-based
# Protocol: as §1
# [1] = tested on: P. aeruginosa NMI 7197/19; type: cell-based, Pseudomonas aeruginosa; details: NMI 7197/19, 20 h
# Protocol: as §1
# P. aeruginosa PAO1 = type: cell-based, Pseudomonas aeruginosa; details: PAO1, 20 h
# Protocol: as §1
# E. coli NMI 3371/16 = type: cell-based, Escherichia coli; details: NMI 3371/16, 20 h
# Protocol: as §1
# E. coli NMI 3898/15 = type: cell-based, Escherichia coli; details: NMI 3898/15, 20 h
# Protocol: as §1
# E. coli ATCC 25922 = type: cell-based, Escherichia coli; details: ATCC 25922, 20 h
# Protocol: as §1
# [2] = Hydrophobicity by retention in analytical RP-HPLC (% MeCN at peak elution); type: physicochemical; details: for % MeCN at Elution, Aeris Peptide: Phenomenex Aeris Peptide XB-C18 column; for % MeCN at Elution, Aeris Peptide / % MeCN at Elution, Luna Omega / % MeCN at Elution, Supelco Discovery: gradient 0→60% B during 15 min; for % MeCN at Elution, Luna: Phenomenex Luna C18(2) column, RP-HPLC gradient 0→60% B during 15 min, relative hydrophobicity; for % MeCN at Elution, Luna Omega: Phenomenex Luna Omega Polar C18 column; for % MeCN at Elution, Supelco Discovery: Supelco Discovery BIO Wide pore C18 column
# Protocol: For each peptide/β-peptoid hybrid oligomer, the retention time in RP-HPLC was measured on four different columns (details shown in Table 2): Phenomenex Luna C18(2) column (recommended for hydrophobic compounds [49]), Phenomenex Luna Omega Polar C18 column (recommended for both very polar and non-polar compounds [50]) as well as Phenomenex Aeris Peptide XB-C18 [51] and Sigma-Aldrich Supelco Discovery BIO Wide pore C18 [52] columns, which both are recommended for analysis of peptides. The retention times of the compounds on each column were used to calculate the acetonitrile concentration at peak elution (denoted merely as % MeCN; Table 1). As expected, the % MeCN for each compound varied somewhat between the four columns.
# Starting materials and solvents were acquired from commercial suppliers (Iris Biotech, Markredwitz, Germany; Fluorochem, Hadfield, UK; and Merck, Darmstadt, Germany) and used without further purification. Water used for analytical and preparative high-performance liquid chromatography (HPLC) was filtered through a 0.22-μm capsule filter using an Evoqua LaboStar Pro TWF UV system. Purity and retention time of each peptidomimetic were determined by analytical HPLC by using a Phenomenex Luna Omega Polar C18 column (150 × 4.6 mm; particle size: 3 μm; pore size: 100 Å) on a Shimadzu Prominence and Shimadzu Nexera system using an aqueous acetonitrile (MeCN, VWR, Søborg, Denmark) gradient with 0.1% trifluoroacetic acid (TFA, Iris Biotech, Markredwitz, Germany) added (eluent A: 5:95 MeCN–H2O + 0.1% TFA, eluent B: 95:5 MeCN–H2O + 0.1% TFA); a flow rate of 0.8 mL/min was used. For elution of peptidomimetics, a linear gradient of 0% to 60% B during 15 min was used with UV detection at λ = 220 nm. […] Retention time of each peptidomimetic was also determined by using a Phenomenex Luna C18(2) column (150 × 4.6 mm; particle size: 3 μm; pore size: 100 Å), a Phenomenex Aeris Peptide XB-C18 column (150 × 4.6 mm; particle size: 3.6 μm; pore size: 100 Å), and a Sigma-Aldrich Supelco Discovery BIO Wide pore C18 column (150 × 4.6 mm, particle size: 3 µm; pore size: 300 Å). For each peptidomimetic, the percentage of MeCN at peak elution was calculated from the retention time by using the following formula:(1) %MeCN =0.95 (0.6Rt/15 min)+0.05 (1−0.6Rt/15 min)
# [3] = Determination of hemolytic activity; type: cell-based; details: red blood cell suspension in PBS buffer, human red blood cells at 400 µg/mL, 37 °C
# Protocol: The lysis of human red blood cells was measured almost as previously described, albeit with modifications. In brief, a suspension of freshly drawn human red blood cells (hRBCs) was washed three times with PBS buffer and centrifuged two times for 5 min at 2500 rpm. A two-fold serial dilution of compounds in PBS buffer was prepared. Plates (conical-bottomed 96-well plates) with three replicate wells per dilution, each containing 1% red blood cell suspension, were prepared and dosed with the test compound to achieve a final concentration of 400 μg/mL in a total volume of 100 μL. The plates were incubated (37 °C) for 60 min with mild agitation, and then the cells were pelleted by centrifugation at 1500 rpm for 5 min. The supernatants (50 μL) were then transferred to a fresh 96-well plate, and the concentration of hemoglobin was detected by measuring the OD at 405 nm. The OD of cells incubated with 1% SDS defined 100% hemolysis, while the OD of cells incubated with PBS buffer defined 0% hemolysis. The concentration tested was 400 μg/mL (only average values are stated in Table 5). The percent hemolysis was calculated by using the formula:(3) Hemolysis (%)=100×[Asample−Aneg.control/Apos.control−Aneg.control]
# [4] = tested on: HepG2 cell line ATCC HB-8065; test: Antiproliferative activity on HepG2 cell line (MTT assay); type: cell-based; details: inhibition of growth of HepG2 cells, 48 h, MTT; highest concentration tested 1280 µg/mL
# Protocol: (§2) Effect of compounds on mammalian cell viability was estimated on the HepG2 cell line ATCC HB-8065. In brief, HepG2 cells were seeded into flat-bottomed 96-well plates at a concentration of 5000 cells per well. Subsequently, the cells were incubated for 24 h in a humidified incubator (5% CO2, 37 °C). Then, the medium was removed, and the cells were incubated for 48 h in a humidified incubator (5% CO2, 37 °C) with peptidomimetics in serial dilutions. Then, an 3-(4,5-dimethylthiazol-2-yl)-2,5-diphenyltetrazolium bromide (MTT) assay was performed as previously described. In brief, after incubation with the test compounds, the culture medium was removed, and then fresh medium with 0.2 mg/mL MTT was added into each well of the plate. The cells were then incubated (3 h, 37 °C, 5% CO2), followed by removal of the medium with MTT and addition of 200 μL dimethyl sulfoxide at once to each sample. Absorbance of MTT was measured using the spectrophotometer TECAN Infinite M1000 at 540 nm. The relative viability was calculated by using the formula: ODtreated cells × 100/ODcontrol cells. The IC50 values are calculated by using the program Graph Pad Prism® 5.0. For all compounds, the test range was 10–1280 μg/mL.
# [5] = as above; type: cell-based; details: HepG2 cells; at 1280 µg/mL, value in parenthesis; read-out: HepG2 cell viability at highest concentration tested
# Protocol: as §2
# A. baumannii ATCC 19606 = type: cell-based, Acinetobacter baumannii; details: ATCC 19606, 20 h
# Protocol: as §1
# A. baumannii NMI 3658/17 = type: cell-based, Acinetobacter baumannii; details: NMI 3658/17, 20 h
# Protocol: as §1
# E. faecalis ATCC 29212 = type: cell-based; details: ATCC 29212, 20 h
# Protocol: as §1
# [6] = rat, in vivo; cited from earlier work
"MIC, SA (S. aureus ATCC 29213) [µg/mL]","MIC, KP (K. pneumoniae ATCC 13883)","MIC, P. aeruginosa NMI 7197/19 [1] [µg/mL]","MIC, PA (P. aeruginosa PAO1) [µg/mL]","MIC, E. coli NMI 3371/16 (E. coli NMI 3371/16) [µg/mL]","MIC, E. coli NMI 3898/15 (E. coli NMI 3898/15) [µg/mL]","MIC, EC (E. coli ATCC 25922) [µg/mL]","% MeCN at Elution, Aeris Peptide [2] [% MeCN]","% MeCN at Elution, Luna [2] [% MeCN]","% MeCN at Elution, Luna Omega [2] [% MeCN]","% MeCN at Elution, Supelco Discovery [2] [% MeCN]",HepG2 IC50 [4] [µg/mL],"MIC, AB (A. baumannii ATCC 19606) [µg/mL]","MIC, A. baumannii NMI 3658/17 (A. baumannii NMI 3658/17) [µg/mL]","MIC, KP (K. pneumoniae ATCC 13883; ATCC 13883, 20 h) [µg/mL]","MIC, EF (E. faecalis ATCC 29212) [µg/mL]",MIC against E. coli (E. coli ATCC 25922) [µM],Molecule,hemolysis at 60 min [3] [%],viability at 48 h [5] [%],elimination half-life [6] [min]
32 to 64,64–>64,>64,32,4,8,4,39.2,41.2,41.6,41.4,761,4 to 8,4,–,–,–,"NCCCC[C@H](NC(=O)CCN(Cc1ccc(F)cc1)C(=O)[C@H](CCCCN)NC(=O)CCN(Cc1ccc(F)cc1)C(=O)[C@H](CCCCN)NC(=O)COCCNC(=O)CCN(Cc1ccc(F)cc1)C(=O)[C@H](CCCCN)NC(=O)CCN(Cc1ccc(F)cc1)C(=O)[C@H](CCCCN)NC(=O)CCN(Cc1ccc(F)cc1)C(=O)[C@@H](N)CCCCN)C(=O)N(CCC(N)=O)Cc1ccc(F)cc1 [Compound 6, H-[X]3-sPEG1-[X]3-NH2]",7.7,6,–
–,–,>64,32,4,8,4,39.6,41.7,42.1,41.9,601,4 to 8,4,>64,>64,–,"NCCCC[C@H](NC(=O)CCN(Cc1ccc(F)cc1)C(=O)[C@H](CCCCN)NC(=O)CCN(Cc1ccc(F)cc1)C(=O)[C@H](CCCCN)NC(=O)COCCOCCOCCNC(=O)CCN(Cc1ccc(F)cc1)C(=O)[C@H](CCCCN)NC(=O)CCN(Cc1ccc(F)cc1)C(=O)[C@H](CCCCN)NC(=O)CCN(Cc1ccc(F)cc1)C(=O)[C@@H](N)CCCCN)C(=O)N(CCC(N)=O)Cc1ccc(F)cc1 [Compound 8, H-[X]3-sPEG3-[X]3-NH2]",8.9,10,–
>64,–,>64,>64,8 to 16,32,8,39.8,41.8,42.4,42.0,~1280,16 to 32,16,>64,>64,–,"NCCCC[C@H](NC(=O)CCN(Cc1ccc(F)cc1)C(=O)[C@H](CCCCN)NC(=O)COCCOCCOCCNC(=O)CCN(Cc1ccc(F)cc1)C(=O)[C@H](CCCCN)NC(=O)CCN(Cc1ccc(F)cc1)C(=O)[C@H](CCCCN)NC(=O)COCCOCCOCCNC(=O)CCN(Cc1ccc(F)cc1)C(=O)[C@H](CCCCN)NC(=O)CCN(Cc1ccc(F)cc1)C(=O)[C@@H](N)CCCCN)C(=O)N(CCC(N)=O)Cc1ccc(F)cc1 [Compound 17, H-[X]2-sPEG3-[X]2-sPEG3-[X]2-NH2]",9.4,35,–
>64,–,>64,>64,8 to 16,16,4 to 8,40.1,42.1,42.7,42.3,~1280,8 to 16,16,64,>64,1.2 to 2.4,"NCCCC[C@H](NC(=O)CCN(Cc1ccc(F)cc1)C(=O)[C@H](CCCCN)NC(=O)CCOCCOCCOCCOCCNC(=O)CCN(Cc1ccc(F)cc1)C(=O)[C@H](CCCCN)NC(=O)CCN(Cc1ccc(F)cc1)C(=O)[C@H](CCCCN)NC(=O)CCOCCOCCOCCOCCNC(=O)CCN(Cc1ccc(F)cc1)C(=O)[C@H](CCCCN)NC(=O)CCN(Cc1ccc(F)cc1)C(=O)[C@@H](N)CCCCN)C(=O)N(CCC(N)=O)Cc1ccc(F)cc1 [Compound 18, H-[X]2-sPEG4-[X]2-sPEG4-[X]2-NH2]",8.3,41,–
–,–,–,–,–,–,–,–,–,–,–,–,–,–,–,–,–,VDKPPYLPRPRPIRrPGGr-NH2 [OM19r-8],–,–,1.6
